The structures appear in SMILES notation. Where two headings read alike, the source gives them in different places.

Assay [1] addresses E. coli PBP3 (Escherichia coli (strain K12), UniProt P0AD68). The experiment in a line: E. coli PBP3 Bocillin-FL fluorescence polarization competition binding assay. From the text:
To determine the ability of boronic acid-based test PBP inhibitors to bind Penicillin Binding Proteins (PBPs), Bocillin-FL (fluorescently-labeled penicillin V; ThermoFisher Scientific) was used in a fluorescence polarization (FP) competition binding assay to assess inhibitor binding to PBP2, PBP3 or PBP4 from Escherichia coli. PBPs were cloned and purified as described previously (King, D. T, et al., ACS Infectious Diseases 2015, 1, 175-184). To establish assay conditions for competition binding, an enzyme titration/saturation binding experiment was initially performed. Bocillin-FL was prepared at 0.2 μM in a buffer comprised of 50 mM Hepes (pH 8.0), 300 mM NaCl and 5% (v/v) glycerol. Saturation binding was performed by mixing 40 μl of PBP solutions ranging in concentrations from 0-12 μM with 40 μl of the 0.2 μM Bocillin-FL solution, in individual wells of a black 384-well microplate. FP was measured immediately upon mixing (Excitation, 490 nm; Emission, 520 nm; g-factor, 0.96), using a Cytation3 (BioTek) microplate reader and measured continuously for up to 120 minutes. […] Assays (80 μl final volume) were performed with PBPs at a final concentration of 1.5 μM, Bocillin-FL at 0.1 μM and beta-lactam concentrations that ranged from 0-1000 μM. […] Bocillin-FL was added and the FP immediately measured for 60 minutes (90 minutes for PBP2). The beta-lactam potency was reported as the concentration of beta-lactam required to reduce binding of Bocillin-FL by […] (EC50). […] Binding assays for boronic acid PBP inhibitors were performed in an identical fashion.
Background: Polarisation of emitted light reports the rotation of a fluorescent probe.

Assay [2] has as its system E. coli ATCC 25922. The experiment in a line: Broth microdilution MIC, E. coli ATCC 25922. In kind it is cell-based. As to conditions: Escherichia coli. How it is done:
(§1) To determine the ability of test compounds to potentiate the inhibition of the growth of bacterial strains, classic cell based broth microdilution minimum inhibitory concentration (MIC) assays were employed. MIC assays are performed according to CLSI methods except where otherwise noted (CLSI, 2011 and CLSI, 2009). The reference type strain E. coli ATCC 25922, the wild-type parent strain E. coli AG100, the hyper-permeable E. coli 901C and E. coli D22 and the E. coli AG100A strain lacking the acrAB efflux pump encoding genes were used to determine the ability of the PBP inhibitors to penetrate the outer membrane of gram-negative bacteria and inhibit bacterial growth. […] The P. aeruginosa PAO1, P. aeruginosa ATCC 27853 and A. baumannii ATCC 19606, along with the hyper-permeable P. aeruginosa ATCC 35151 and an engineered efflux pump-compromised strain of P. aeruginosa (ΔmexAB-oprM) were used to determine the ability of PBP inhibitors to penetrate the outer membrane of P. aeruginosa and A. baumannii and assess antibacterial activity against these important gram-negative organisms.
(§2) Briefly, cryo-preserved bacterial cultures of challenge strains are streaked for isolation on appropriate agar medium, in this case Mueller Hinton II agar. Following incubation to allow growth of the colonies, plates are sealed with parafilm and stored refrigerated for up to two weeks. For preparation of assay inoculum and to ensure low variability, at least 5 colonies are picked from the agar plates with an inoculating loop and aseptically transferred to a culture tube containing 3 mL of Mueller-Hinton Broth (supplemented with divalent cations to required levels based on Manufacturers' certification). The broth culture is grown for 3-5 hours at 37° C. with shaking at 200 rpm. Meanwhile, 2-fold serial dilutions of test compounds are conducted in a 96 well plate with a final volume of 75 μL per well at 2-fold the final desired concentration. After the dilution plates are set up the growing cultures are then diluted in a cuvette containing MH II broth and the optical density is measured at 600 nm. The Inoculum is diluted such that 75 μL of this culture in Mueller-Hinton Broth results in a starting bacterial concentration of 5×10^5 CFU/mL when added to the dilution plates. The plates are incubated for 16-20 hours at 37° C. The MIC values are read visually as the lowest concentration well with no bacterial growth.
For orientation: Dilution methods test growth across graded concentrations, often in twofold steps.

For assay [3], the system named is K. pneumoniae UMM. As to the kind of experiment: microbe, parasite or virus in culture. In kind it is cell-based. The settings on record: Klebsiella pneumoniae; K. pneumoniae UMM producing SHV-5 and KPC-2; read-out: MIC K. pneumoniae UMM. How it is done: as §1, §2
Assay [4] relates to E. coli 901C. The experiment in a line: microbe, parasite or virus in culture. As to conditions: Escherichia coli; hyper-permeable E. coli 901C, broth microdilution; read-out: MIC E. coli 901C. In kind it is cell-based. How it is done:
as §1, §2

The test system of assay [5] is K. pneumoniae SI-117. As to the kind of experiment: microbe, parasite or virus in culture. The class given is cell-based. The settings on record: Klebsiella pneumoniae, SI117, read-out: MIC K. pneumoniae SI-117. How it is done: as §1, §2
In assay [6] the test system is E. coli AG100A. The experiment in a line: microbe, parasite or virus in culture. The settings on record: Escherichia coli, read-out: MIC E. coli AG100A. In kind it is cell-based. How it is done: as §1, §2
For assay [7], the system named is E. coli D22. The experiment in a line: microbe, parasite or virus in culture. In kind it is cell-based. The settings on record: Escherichia coli; hyper-permeable E. coli D22, broth microdilution; read-out: MIC E. coli D22. How it is done:
as §1, §2

For assay [8], the system named is E. coli AG100. As to the kind of experiment: Broth microdilution MIC, E. coli AG100 (wild-type parent). The class given is cell-based. As to conditions: Escherichia coli; wild-type parent E. coli AG100, broth microdilution; read-out: MIC E. coli AG100. How it is done: To determine the ability of test compounds to potentiate the inhibition of the growth of bacterial strains, classic cell based broth microdilution minimum inhibitory concentration (MIC) assays were employed.
as §2

Assay [9] deals with K. pneumoniae 848844. The experiment in a line: microbe, parasite or virus in culture. In kind it is cell-based, Klebsiella pneumoniae. As to conditions: Klebsiella pneumoniae; K. pneumoniae 848844 producing SHV-11 and KPC-2; read-out: MIC K. pneumoniae 848844. How it is done: as §1, §2
[10] abbreviates: ATCC25922, E. coli ATCC 25922, broth microdilution, read-out: MIC E. coli 25922.

E. coli PBP3, sequence (P0AD68 whole entry): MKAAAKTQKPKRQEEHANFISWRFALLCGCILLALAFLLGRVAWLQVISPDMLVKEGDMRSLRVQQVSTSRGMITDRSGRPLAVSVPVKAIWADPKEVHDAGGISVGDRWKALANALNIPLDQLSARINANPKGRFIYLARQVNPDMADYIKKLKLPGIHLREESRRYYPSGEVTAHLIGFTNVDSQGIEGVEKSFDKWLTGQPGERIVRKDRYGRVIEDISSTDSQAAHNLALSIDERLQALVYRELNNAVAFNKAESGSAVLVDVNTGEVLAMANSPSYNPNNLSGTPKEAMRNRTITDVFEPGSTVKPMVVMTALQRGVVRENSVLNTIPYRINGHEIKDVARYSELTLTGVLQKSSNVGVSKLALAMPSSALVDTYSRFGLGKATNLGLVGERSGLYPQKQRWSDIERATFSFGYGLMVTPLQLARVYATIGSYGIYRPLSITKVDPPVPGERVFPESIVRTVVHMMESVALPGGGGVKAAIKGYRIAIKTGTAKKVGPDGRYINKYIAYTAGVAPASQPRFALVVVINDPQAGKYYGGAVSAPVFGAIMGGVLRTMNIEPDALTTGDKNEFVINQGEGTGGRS

`CCN1CCN(C(=O)NC(C(=O)N[C@H]2Cc3cccc(C(=O)O)c3OB2O)c2ncccc2F)C(=O)C1=O` (stereo partly drawn) [Example 162, (3R)-3-(2-(4-ethyl-2,3-dioxopiperazine-1-carboxamido)-2-(3-fluoropyridin-2-yl)acetamido)-2-hydroxy-3,4-dihydro-2H-benzo[e][1,2]oxaborinine-8-carboxylic acid] had an EC50 in assay [1] of 30 to 500 µM. Moreover, the MIC was 32 to 64 µg/mL in [2] (setting [10]); 32 to 64 µg/mL in assay [3]; 0.5 to 1 µg/mL in assay [4]; 32 to 64 µg/mL in [5]; 2 to 4 µg/mL in [6]; 8 to 16 µg/mL in [7]. In addition, the values for the MIC in assay [8] and in assay [9] were 32 to 64 µg/mL and greater than 128 µg/mL, respectively.

`CCN1CCN(C(=O)NC(C(=O)N[C@H]2Cc3cccc(C(=O)O)c3OB2O)c2ccc(OC)c(S(N)(=O)=O)c2)C(=O)C1=O` (stereo partly drawn) [Example 144, (3R)-3-(2-(4-ethyl-2,3-dioxopiperazine-1-carboxamido)-2-(4-methoxy-3-sulfamoylphenyl)acetamido)-2-hydroxy-3,4-dihydro-2H-benzo[e][1,2]oxaborinine-8-carboxylic acid] registered an EC50 in assay [1] of 30 to 500 µM. Besides, the MIC in assay [2] (setting [10]) is greater than 128 µg/mL; in assay [3], 32 to 64 µg/mL; in [4] it was 0.5 to 1 µg/mL; in assay [5], greater than 128 µg/mL; in assay [6], 8 to 16 µg/mL; in assay [7] it was 8 to 16 µg/mL. In addition, the MIC was 8 to 16 µg/mL in [8] and greater than 128 µg/mL in assay [9].

In turn, `NCCN1CCN(C(=O)N[C@H](C(=O)N[C@H]2Cc3cccc(C(=O)O)c3OB2O)c2ccc(O)c(O)c2Cl)C(=O)C1=O` [Example 221, (R)-3-((S)-2-(4-(2-aminoethyl)-2,3-dioxopiperazine-1-carboxamido)-2-(2-chloro-3,4-dihydroxyphenyl)acetamido)-2-hydroxy-3,4-dihydro-2H-benzo[e][1,2]oxaborinine-8-carboxylic acid] gave an EC50 in assay [1] of 30 to 500 µM. Moreover, the MIC in assay [2] (setting [10]) was greater than 128 µg/mL; in [3], 8 to 16 µg/mL; in assay [4], 8 to 16 µg/mL; in [5], 32 to 64 µg/mL; in assay [6] it was 8 to 16 µg/mL; in assay [7], 8 to 16 µg/mL. In addition, the MIC lay in the range of 8 to 16 µg/mL in [8] and 32 to 64 µg/mL in [9].

In [1], `NS(=O)(=O)c1ccc([C@H](NC(=O)N2CCN(CCBr)C(=O)C2=O)C(=O)N[C@H]2Cc3cccc(C(=O)O)c3OB2O)cc1O` [Example 171, (R)-3-((S)-2-(4-(2-bromoethyl)-2,3-dioxopiperazine-1-carboxamido)-2-(3-hydroxy-4-sulfamoylphenyl)acetamido)-2-hydroxy-3,4-dihydro-2H-benzo[e][1,2]oxaborinine-8-carboxylic acid] displayed an EC50 of 30 to 500 µM. Further, the MIC was 32 to 64 µg/mL in assay [2] (ATCC25922, read-out: MIC E. coli 25922); 32 to 64 µg/mL in assay [3]; 0.5 to 1 µg/mL in [4]; greater than 128 µg/mL in [5]; 8 to 16 µg/mL in [6]; 0.5 to 1 µg/mL in [7]. For the same compound, the MIC in assay [8] was 32 to 64 µg/mL; in assay [9] it was greater than 128 µg/mL.

`CCN1CCN(C(=O)NC(C(=O)N[C@H]2Cc3cccc(C(=O)O)c3OB2O)c2ccc(OCCCN)cc2F)C(=O)C1=O` (stereo partly drawn) [Example 209, (3R)-3-(2-(4-(3-aminopropoxy)-2-fluorophenyl)-2-(4-ethyl-2,3-dioxopiperazine-1-carboxamido)acetamido)-2-hydroxy-3,4-dihydro-2H-benzo[e][1,2]oxaborinine-8-carboxylic acid] had an EC50 in assay [1] of 30 to 500 µM. Besides, the MIC in assay [2] (setting [10]) is 8 to 16 µg/mL; in assay [3], 32 to 64 µg/mL; in assay [4] it was less than 0.25 µg/mL; in [5], greater than 128 µg/mL; in assay [6] it was 0.5 to 1 µg/mL; in assay [7] it was 2 to 4 µg/mL. The MIC in [8] was 32 to 64 µg/mL; in assay [9], greater than 128 µg/mL.

Regarding `CCN1CCN(C(=O)N[C@H](C(=O)N[C@H]2Cc3cccc(C(=O)O)c3OB2O)c2ccc(S(N)(=O)=O)c(O)c2)C(=O)C1=O` [Example 166, (R)-3-((S)-2-(4-ethyl-2,3-dioxopiperazine-1-carboxamido)-2-(3-hydroxy-4-sulfamoylphenyl)acetamido)-2-hydroxy-3,4-dihydro-2H-benzo[e][1,2]oxaborinine-8-carboxylic acid], the EC50 in [1] fell in the range of 30 to 500 µM. Also, the MIC in [2] (setting [10]) was 32 to 64 µg/mL; in assay [3], 32 to 64 µg/mL; in [4], less than 0.25 µg/mL; in assay [5] it was greater than 128 µg/mL; in assay [6], 2 to 4 µg/mL; in [7], 2 to 4 µg/mL. Moreover, the MIC is 32 to 64 µg/mL in assay [8] and greater than 128 µg/mL in assay [9].

With `CCN1CCN(C(=O)N[C@H](C(=O)N[C@H]2Cc3cccc(C(=O)O)c3OB2O)c2ncc(O)cc2F)C(=O)C1=O` [Example 176, (R)-3-((S)-2-(4-ethyl-2,3-dioxopiperazine-1-carboxamido)-2-(3-fluoro-5-hydroxypyridin-2-yl)acetamido)-2-hydroxy-3,4-dihydro-2H-benzo[e][1,2]oxaborinine-8-carboxylic acid], the EC50 in assay [1] (fluorescence polarization competition binding with Bocillin-FL, read-out: E. coli K12 PBP3 Potency) was less than 30 µM. Moreover, the MIC is 32 to 64 µg/mL in assay [2] (setting [10]); 32 to 64 µg/mL in [3]; less than 0.25 µg/mL in assay [4]; 32 to 64 µg/mL in [5]; 2 to 4 µg/mL in assay [6]; 2 to 4 µg/mL in [7]. Also, the values for the MIC in [8] and in [9] were 32 to 64 µg/mL and greater than 128 µg/mL, respectively.

Regarding `CCN1CCN(C(=O)NC(C(=O)N[C@H]2Cc3ccc(F)c(C(=O)O)c3OB2O)c2cccnc2)C(=O)C1=O` (stereo partly drawn) [Example 141, (3R)-3-(2-(4-ethyl-2,3-dioxopiperazine-1-carboxamido)-2-(pyridin-3-yl)acetamido)-7-fluoro-2-hydroxy-3,4-dihydro-2H-benzo[e][1,2]oxaborinine-8-carboxylic acid], the EC50 in assay [1] was 30 to 500 µM. Besides, the MIC in assay [2] (setting [10]) was greater than 128 µg/mL; in assay [3], 32 to 64 µg/mL; in assay [4], 2 to 4 µg/mL; in assay [5] it was greater than 128 µg/mL; in [6], 32 to 64 µg/mL; in assay [7], 8 to 16 µg/mL. In addition, the MIC in assay [8] and in [9] was greater than 128 µg/mL in each case.

The record behind these values is patent US12173018B2, “Penicillin-binding protein inhibitors” (priority 2018, dated 2024).
